Data: US12037324B2, “Biarylmethyl heterocycles” (Université de Montréal, priority 2016, dated 2024)

Assays:
Type in all cases: cell-based
AGTR1 [1] = target: T1, AGTR1 (Homo sapiens, UniProt P30556); assay: DiscoveRx β-arrestin2 recruitment assay (enzyme complementation, Pathunter CHO-K1 AGTR1 β-arrestin cell line); conditions: DiscoveRx β-arrestin2 recruitment; for DiscoveRx β-arrestin2 Ymax (%): maximal response
T1 construct: host or cells: Pathunter CHO-K1 AGTR1 β-arrestin cell line (CHO-K1)
T1 sequence (P30556 1-359): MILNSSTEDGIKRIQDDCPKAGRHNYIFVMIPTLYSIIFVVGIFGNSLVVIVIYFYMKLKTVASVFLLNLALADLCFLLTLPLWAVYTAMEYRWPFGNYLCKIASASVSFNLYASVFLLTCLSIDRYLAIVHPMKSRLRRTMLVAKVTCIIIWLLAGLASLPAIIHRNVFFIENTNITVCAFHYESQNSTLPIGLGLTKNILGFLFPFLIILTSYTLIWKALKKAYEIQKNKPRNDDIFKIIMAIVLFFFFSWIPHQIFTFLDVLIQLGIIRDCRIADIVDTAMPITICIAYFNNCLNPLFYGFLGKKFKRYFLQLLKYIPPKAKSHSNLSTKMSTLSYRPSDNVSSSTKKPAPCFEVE
Experimental: In one aspect of the invention, signaling bias of compounds was assessed by comparing the relative activity of compounds to activate both the β-arrestin and Gq signaling pathways. In order to confirm signaling bias, compounds were studied in two different assay formats. DiscoveRx β-arrestin2 Recruitment and IP1 Assays β-arrestin2 recruitment to activated receptors can be assessed using an enzyme complementation method (Zhao, Jones et al. 2008). […] Cells (5000/well) were plated into 1536 well plates (Cellocoat plates, Greiner Bio One, Monroe, NC) 14-16 hours before each experiment in 20 μl DMEM/F12 medium (Thermo-Fisher Scientific, Carlsbad, CA) containing heat-inactivated 1% fetal bovine serum. Subsequently, the compounds of interest were added at varying concentrations to the wells in a volume of 200 nl and the cells incubated for 90 min at 37° C. The detection reagent (10 μl) was added to each well and the plates incubated at room temperature for 1 hour before measurement of chemiluminescence using an EnVision Multilabel Reader (Perkin-Elmer, Waltham, MA). The data are processed using Toolset for Runmaster QCMulti. Concentration-response curves are fitted and EC50s (agonist mode) and IC50s (antagonist mode) estimated using a 4-parameter logistic equation. Compound activities are reported as a relative percentage to the maximal effect of All in the assays.

AGTR1 [2] = target: T1, AGTR1; assay: DiscoveRx IP1 accumulation assay (HTRF), agonist mode, Pathunter CHO-K1 AGTR1 β-arrestin cell line; conditions: for EC50: read-out: IP-1 EC50
Experimental: In one aspect of the invention, signaling bias of compounds was assessed by comparing the relative activity of compounds to activate both the β-arrestin and Gq signaling pathways. In order to confirm signaling bias, compounds were studied in two different assay formats.
DiscoveRx β-arrestin2 Recruitment and IP1 Assays
Gq activation can be assessed by measuring the accumulation of inositol phosphates (e.g. IP3, IP1) that are liberated following activation of phospholipase C by Gq (Thomsen, Frazer et al. 2005). In the current invention we have utilized the DiscoveRx Pathunter CHO-K1 AGTR1 β-arrestin cell line to also measure IP1 accumulation in response to compounds. IP1 accumulation was measured in both agonist and antagonist modes. In agonist mode, cells are plated as above 14-16 hours before the experiment. The medium is then removed and compounds at varying concentrations added in a final volume of 20 μl. The cells are incubated at 37° C. for 90 min. IP1 accumulation detected using a commercial HTRF assay according to manufacturer's instructions (Cisbio, Bedford, MA). Specifically, 4 μl of D2-conjugate solution (diluted 1:20 in Cisbio HTRF assay buffer) is added to each well, followed by the addition of 4 μl of anti-IP1 cryptate diluted 1:20 in HTRF assay buffer and the plates incubated for 20 min at room temperature. 14 μl from each well is measured using an Envision multi-label reader and data processed using Toolset for Runmaster QCMulti. Concentration-response curves are fitted and EC50s (agonist mode) and IC50s (antagonist mode) estimated using a 4-parameter logistic equation. Compound activities are reported as a relative percentage to the maximal effect of All in the assays.

hAT1R = target: T2, hAT1R (Homo sapiens, UniProt P30556); assay: BRET β-arrestin2 biosensor assay, higher receptor expression (hAT1R 5 ng/well), HEK293 cells; conditions: for EC50: High AT1R Expression
T2 sequence (P30556 1-359): T1 sequence (P30556 1-359)

Compound	EC50 (AGTR1 [1]) [µM]	DiscoveRx β-arrestin2 Ymax (%) (AGTR1 [1])	IP-1 Ymax (%) (AGTR1 [2])	EC50 (AGTR1 [2]) [µM]	BRET β-Arrestin2 High AT1R Expression Ymax (%) (hAT1R)	EC50 (hAT1R) [µM]
CCCCOC(=O)NS(=O)(=O)c1sc(-c2ccccc2)cc1-c1ccc(Cn2c(CC)nc3c(C)cc(C)nc32)cc1 [Example 49, Butyl (3-(4-((2-ethyl-5,7-dimethyl-3H-imidazo[4,5-b]pyridin-3-yl)methyl)phenyl)-5-phenylthiophen-2-yl)sulfonylcarbamate]	0.0109	47.6	4.2	0.021	78.3	0.0112
CCCCOC(=O)NS(=O)(=O)c1sc(-c2ccccc2)cc1-c1ccc(Cn2c(CC)nc3c(C)cc(C)nc32)cn1 [Example 50, Butyl (3-(5-((2-ethyl-5,7-dimethyl-3H-imidazo[4,5-b]pyridin-3-yl)methyl)pyridin-2-yl)-5-phenylthiophen-2-yl)sulfonylcarbamate]	0.0109	21.8	6.7	0.132	64.9	0.0168
CCc1nc2c(C)cc(C)nc2n1Cc1ccc(-c2cc(N3CCC(F)(F)C3)ccc2-c2nn[nH]n2)cc1 [Example 51]	0.0212	21.1	3.7	0.0921	43.8	0.099
CCc1nc2c(C)cc(C)nc2n1Cc1ccc(-c2cc(-c3cccnc3)ccc2-c2nn[nH]n2)cc1 [Example 52]	0.0055	5.0	–	> 1	23.4	0.0307
CCc1nc2c(C)cc(C)nc2n1Cc1ccc(-c2cc(-c3ccc(F)cc3F)ccc2-c2nn[nH]n2)cc1 [Example 54]	0.0059	39.5	7.0	0.0105	89.7	0.0057
CCc1nc2c(C)cc(C)nc2n1Cc1ccc(-c2cc(-c3cncn3C)ccc2-c2nn[nH]n2)cc1 [Example 58]	0.0862	12.7	3.1	0.427	46.2	0.19
CCc1nc2c(C)cc(C)nc2n1Cc1ccc(-c2cc(-c3ccccc3)ccc2OCC(=O)O)cc1 [Example 69, 2-((4″-((2-ethyl-5,7-dimethyl-3H-imidazo[4,5-b]pyridin-3-yl)methyl)-[1,1′:3′,1″-terphenyl]-4′-yl)oxy)acetic acid]	0.376	8.5	–	> 100	10.3	1.5
CCc1nc2c(C)cc(C)nc2n1Cc1ccc(-c2cc(C3=CCCCC3)ccc2-c2nn[nH]n2)cc1 [Example 70, 3-((6′-(2H-Tetrazol-5-yl)-2″,3″,4″,5″-tetrahydro-[1,1′:3′,1″-terphenyl]-4-yl)methyl)-2-ethyl-5,7-dimethyl-3H-imidazo[4,5-b]pyridine]	0.0131	58.7	–	> 50	94.7	0.0071
CCc1nc2c(C)cc(C)nc2n1Cc1ccc(-c2cc(C3CCCCC3)ccc2-c2nn[nH]n2)cc1 [Example 71, 3-((5′-Cyclohexyl-2′-(2H-tetrazol-5-yl)-[1,1′-biphenyl]-4-yl)methyl)-2-ethyl-5,7-dimethyl-3H-imidazo[4,5-b]pyridine]	0.0174	46.8	11.8	48.6	86.6	0.0233
CCc1nc2c(C)cc(C)nc2n1Cc1ccc(-c2cc(C3=NCCC3)ccc2-c2nn[nH]n2)cc1 [Example 77, 3-((5′-(3,4-dihydro-2H-pyrrol-5-yl)-2′-(2H-tetrazol-5-yl)-[1,1′-biphenyl]-4-yl)methyl)-2-ethyl-5,7-dimethyl-3H-imidazo[4,5-b]pyridine]	0.0602	21.1	7.1	0.204	77.1	0.0906
CCc1nc2c(C)cc(C)nc2n1Cc1ccc(-c2cc(N3CCC(F)(F)CC3)ccc2-c2nn[nH]n2)cc1 [Example 82, 3-((5′-(4,4-difluoropiperidin-1-yl)-2′-(2H-tetrazol-5-yl)-[1,1′-biphenyl]-4-yl)methyl)-2-ethyl-5,7-dimethyl-3H-imidazo[4,5-b]pyridine]	0.0957	16.8	–	> 100	49.6	0.142
CCc1nc2c(C)cc(C)nc2n1Cc1ccc(-c2cc(N3CC(C)(C)c4ccccc43)ccc2-c2nn[nH]n2)cc1 [Example 84]	0.0916	35.3	6.6	0.126	88.9	0.0364
CCc1nc2c(C)cc(C)nc2n1Cc1ccc(-c2cc(-n3ccc4cc(F)ccc43)ccc2-c2nn[nH]n2)cc1 [Example 85]	0.0182	16.9	–	> 100	88.3	0.0105
CCc1nc2c(C)cc(C)nc2n1Cc1ccc(-c2cc(N3CCC(OC)CC3)ccc2-c2nn[nH]n2)cc1 [Example 87]	0.0425	16.7	7.2	0.042	29.1	0.451
CCc1nc2c(C)cc(C)nc2n1Cc1ccc(-c2cc(-n3cccc3)ccc2-c2nn[nH]n2)cc1 [Example 90]	0.0554	23.2	6.0	0.0398	77.7	0.0277
CCc1nc2c(C)cc(C)nc2n1Cc1ccc(-c2cc(Nc3ccccc3)ccc2-c2nn[nH]n2)cc1 [Example 93]	0.0079	32.6	5.4	0.0212	82.8	0.0075
CCc1nc2c(C)cc(C)nc2n1Cc1ccc(-c2cc(N(C)c3ccccc3)ccc2-c2nn[nH]n2)cc1 [Example 94]	0.0131	35.9	9.0	0.0327	76.8	0.0208
CCc1nc2c(C)cc(C)nc2n1Cc1ccc(-c2cc(N3CCc4ccccc43)ccc2-c2nn[nH]n2)cc1 [Example 96]	0.0126	33.0	5.3	0.0287	77.6	0.0129
CCc1nc2c(C)cc(C)nc2n1Cc1ccc(-c2cc(N3CCC(C)CC3)ccc2-c2nn[nH]n2)cc1 [Example 97, 2-ethyl-5,7-dimethyl-3-((5′-(4-methylpiperidin-1-yl)-2′-(2H-tetrazol-5-yl)-[1,1′-biphenyl]-4-yl)methyl)-3H-imidazo[4,5-b]pyridine]	0.0151	34.3	7.3	0.0473	79.7	0.0311
